Data reported in patent publication US9957257B2, “Amide compounds as 5-HT4 receptor agonists” (SUVEN LIFE SCIENCES LIMITED, priority 2015, dated 2018).

Tests used:
Radial arm maze = format: in vivo, rats; settings: p.o.
From the text: The cognition enhancing properties of test compounds of this invention were estimated by using this model.
Radial arm maze consists of a central hub of 45 cm diameter. Each arm was of dimension 42.5×15×24 cm. The maze was elevated to a height of 1 m above the ground. The animals were placed on a restricted diet until they reached approximately 85% of their free feeding weight. During this diet restriction period animals were habituated to the novel feed (pellets). Once the rats reached approximately 85% of their free feeding weight, rats were habituated to the maze on the 1st and 2nd day. […] Animals were randomized on day 2. On the subsequent days the treatment was given as per the allotment. Each animal was introduced into the maze individually for a period of 10 minutes. The arms were baited only once and the animal had to learn the rule that repeated arm entries would not be rewarded. The trial ended once the rat had visited 16 arms or 10 minutes were over or all the pellets were eaten. The arm entries were recorded using the software. Once the trial was over the rat was removed and the maze was cleaned using soap water.

[1] = Rodent brain penetration study; format: in vivo, Male Wistar rats; settings: male, Wistar, rat, 3 mg/kg, oral (gavage), read-out: Single dose Brain Penetration (Cb/Cp)
Description: Male Wistar rats (225±25 grams) were used as experimental animals. Three animals were housed in each cage. Animals were given water and food ad libitum throughout the experiment and maintained on a 12 hours light/dark cycle. Brain penetration was determined in discrete manner in rats. One day prior to dosing day, male wistar rats (225-250 grams) were acclimatized. After acclimatization the rats were grouped according to their weight. In each group, 3 animals were kept in individual cage and allowed free access to food and water. At each time point (0.50, 1 and 2 hours) n=3 animals were used. The test compounds were suitably preformulated and administered orally at (free base equivalent) 3 mg/kg. Blood samples were removed via, cardiac puncture by using isoflurane anesthesia. The animals were sacrificed to collect brain tissue. Plasma was separated and brain samples were homogenized and stored frozen at −20° C. until analysis. The concentrations of the test compounds in plasma and brain were determined using LC-MS/MS method. The test compounds were quantified in plasma and brain homogenate by qualified LC-MS/MS method using suitable extraction technique. The test compounds were quantified in the calibration range of 1-500 ng/mL in plasma and brain homogenate. Study samples were analyzed using calibration samples in the batch and quality control samples spread across the batch. Extent of brain-plasma ratio was calculated (Cb/Cp).

[2] = Rodent pharmacokinetic study; format: in vivo, Male wistar rats; settings: male, Wistar, plasma, rat; for bioavailability: 3 mg/kg oral vs 1 mg/kg intravenous
Description: Male wistar rats (225±25 grams) were used as experimental animals. Three to five animals were housed in each cage. Two days prior to dosing day, male wistar rats (225-250 grams) were anesthetized with isoflurane for surgical placement of jugular vein catheter. Animals were fasted overnight before oral dosing (p.o) and food pellets were allowed 2 hours post dosing, whereas during intravenous dosing food and water were provided as ad libitum. Three rats were dosed with test compounds (3 mg/kg) orally and intravenously (1 mg/kg).
At each time point blood was collected through jugular vein and immediately replenish with an equivalent volume of normal saline from freely moving rats. Collected blood was transferred into a labeled eppendr off containing 10 μL of heparin as anticoagulant. Typically blood samples were collected as following time points: Pre dose, 0.08 (only i.v.), 0.25, 0.5, 1, 2, 4, 6, 8, and 24 hours post dose-(n=3). Blood was centrifuged at 4000 rpm for 10 minutes. Plasma was prepared and stored frozen at −20° C. until analysis. The concentrations of the test compounds were quantified in plasma by qualified LC-MS/MS method using suitable extraction technique. The test compounds were quantified in the calibration range around 2-2000 ng/mL in plasma. Study samples were analyzed using calibration samples in the batch and quality control samples spread across the batch.
Pharmacokinetic parameters Cmax, Tmax, AUCt, T1/2 and Bioavailability were calculated by non-compartmental model using standard non-compartmental model by using WinNonLin 5.0.1 or Phoenix WinNonlin 6.2 version Software package.

[3] = Object recognition task model; format: in vivo, Male Wistar rats; settings: p.o.
Description: The cognition enhancing properties of compounds of this invention were estimated by using this model.
Male Wistar rats (230-280 grams) were used as experimental animals. Four animals were housed in each cage. Animals were kept on 20% food deprivation before one day and given water ad libitum throughout the experiment and maintained on a 12 hours light/dark cycle. Also the rats were habituated to individual arenas for 1 hour in the absence of any objects.
One group of 12 rats received vehicle (1 mL/Kg) orally and another set of animals received compound of the formula (I) either orally or i.p., before one hour of the familiar (T1) and choice trial (T2).
The experiment was carried out in a 50×50×50 cm open field made up of acrylic. In the familiarization phase, (T1), the rats were placed individually in the open field for 3 minutes, in which two identical objects (plastic bottles, 12.5 cm height×5.5 cm diameter) covered in yellow masking tape alone (a1 and a2) were positioned in two adjacent corners, 10 cms from the walls. After 24 hours of the (T1) trial for long-term memory test, the same rats were placed in the same arena as they were placed in T1 trial. Choice phase (T2) rats were allowed to explore the open field for 3 minutes in presence of one familiar object (a3) and one novel object (b) (Amber color glass bottle, 12 cm high and 5 cm in diameter). Familiar objects presented similar textures, colors and sizes. During the T1 and T2 trial, explorations of each object (defined as sniffing, licking, chewing or having moving vibrissae whilst directing the nose towards the object at a distance of less than 1 cm) were recorded separately by stopwatch. Sitting on an object was not regarded as exploratory activity, however, it was rarely observed.
T1 is the total time spent exploring the familiar objects (a1+a2).
T2 is the total time spent exploring the familiar object and novel object (a3+b).
The object recognition test was performed as described by Behaviour Brain Research, 31 (1988), 47-59.

hERG = molecular target: T1, hERG (Homo sapiens, UniProt Q12809); assay: Automated hERG patch clamp assay; format: cell-based; settings: hERG-HEK293 cells, whole cell patch clamp
T1 construct: expressed in transfected cells; host or cells: HEK293 (hERG-HEK293)
Description: To study the cardiac safety of test compounds using automated hERG patch clamp assay, hERG-HEK293 cells were grown to 70% confluency and were harvested using accumax. The cells were then suspended in complete media and were incubated at 37° C. and 5% CO2 for 30 minutes before using these cells for the whole cell patch clamp assay. Whole cell patch clamp recordings were conducted on Nanion's Patchliner using I-V protocol of voltage step from holding potential of −80 mV to +40 mV for 500 ms and then to test potential for 500 ms and back to holding potential of −80 mV. Pulses were elicited every 10 seconds. Each test compound concentration was incubated for 5 minutes. Data analysis was done by plotting the raw data using Igor Pro software and IC50 values were calculated. Cells with resistance >1 Gohms and tail currents of >200 pA were taken into consideration for data analysis. Quinidine was used as positive control.

[4] = molecular target: T2, recombinant human 5-HT4 receptor (Homo sapiens, UniProt Q13639); assay: Determination of EC50 values for 5-HT4 receptor (CHO cells, pCRE-Luc reporter); format: cell-based; settings: luciferase reporter, 4 hours incubation, read-out: 5-HT4 receptor agonistic binding in-vitro EC50
T2 construct: expressed in transfected cells
Description: A stable CHO cell line expressing recombinant human 5-HT4 receptor and pCRE-Luc reporter system was used for cell-based assay. The assay offers a non-radioactive based approach to determine binding of a compound to GPCRs. In this specific assay, the level of intracellular cyclic AMP, which is modulated by activation, or inhibition of the receptor is measured. The recombinant cells harbor luciferase reporter gene under the control of cAMP response element.
The above cells were grown in 96 well clear bottom white plates in Hams F12 medium containing 10% fetal bovine serum (FBS). Prior to the addition of compounds or standard agonist, cells were serum starved overnight. Increasing concentrations of test compounds were added in OptiMEM medium to the cells. The incubation was continued at 37° C. in CO2 incubator for 4 hours. Medium was removed and cells were washed with phosphate buffered saline. The cells were lysed and luciferase activity was measured in a Luminometer. Luminescence units were plotted against the compound concentrations using Graphpad software. EC50 values of the compounds were defined as the concentration required in stimulating the luciferase activity by 50%.

T1 sequence (Q12809 whole entry): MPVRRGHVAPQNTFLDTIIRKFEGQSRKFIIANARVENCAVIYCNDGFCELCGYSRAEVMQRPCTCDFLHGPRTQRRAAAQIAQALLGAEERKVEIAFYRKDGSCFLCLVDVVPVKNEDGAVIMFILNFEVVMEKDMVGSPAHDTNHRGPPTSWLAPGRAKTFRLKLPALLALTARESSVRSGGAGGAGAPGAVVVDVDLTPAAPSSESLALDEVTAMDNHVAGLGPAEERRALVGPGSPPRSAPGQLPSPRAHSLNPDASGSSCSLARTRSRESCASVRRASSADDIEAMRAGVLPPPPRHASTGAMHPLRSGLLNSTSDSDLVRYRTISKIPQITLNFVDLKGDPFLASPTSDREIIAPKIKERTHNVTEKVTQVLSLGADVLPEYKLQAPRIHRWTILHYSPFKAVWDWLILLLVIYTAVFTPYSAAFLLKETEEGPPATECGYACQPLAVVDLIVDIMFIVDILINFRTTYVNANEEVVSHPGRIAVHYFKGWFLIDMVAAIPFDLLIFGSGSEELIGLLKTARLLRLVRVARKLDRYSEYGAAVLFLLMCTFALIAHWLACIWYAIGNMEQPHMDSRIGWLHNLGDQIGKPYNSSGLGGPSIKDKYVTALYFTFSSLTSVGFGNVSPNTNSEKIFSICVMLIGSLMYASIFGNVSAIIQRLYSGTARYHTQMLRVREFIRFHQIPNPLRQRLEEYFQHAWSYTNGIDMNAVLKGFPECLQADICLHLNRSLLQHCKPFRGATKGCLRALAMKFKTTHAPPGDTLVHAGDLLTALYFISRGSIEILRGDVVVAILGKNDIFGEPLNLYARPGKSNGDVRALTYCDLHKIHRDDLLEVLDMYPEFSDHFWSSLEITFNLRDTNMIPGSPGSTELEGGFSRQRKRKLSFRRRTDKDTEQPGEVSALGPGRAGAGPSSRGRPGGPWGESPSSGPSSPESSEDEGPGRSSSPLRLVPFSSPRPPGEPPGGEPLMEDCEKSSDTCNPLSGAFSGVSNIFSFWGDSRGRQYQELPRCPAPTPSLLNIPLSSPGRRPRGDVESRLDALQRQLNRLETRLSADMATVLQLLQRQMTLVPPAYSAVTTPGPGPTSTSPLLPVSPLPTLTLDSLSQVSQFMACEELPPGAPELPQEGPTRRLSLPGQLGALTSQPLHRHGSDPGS
T2 sequence (Q13639 whole entry): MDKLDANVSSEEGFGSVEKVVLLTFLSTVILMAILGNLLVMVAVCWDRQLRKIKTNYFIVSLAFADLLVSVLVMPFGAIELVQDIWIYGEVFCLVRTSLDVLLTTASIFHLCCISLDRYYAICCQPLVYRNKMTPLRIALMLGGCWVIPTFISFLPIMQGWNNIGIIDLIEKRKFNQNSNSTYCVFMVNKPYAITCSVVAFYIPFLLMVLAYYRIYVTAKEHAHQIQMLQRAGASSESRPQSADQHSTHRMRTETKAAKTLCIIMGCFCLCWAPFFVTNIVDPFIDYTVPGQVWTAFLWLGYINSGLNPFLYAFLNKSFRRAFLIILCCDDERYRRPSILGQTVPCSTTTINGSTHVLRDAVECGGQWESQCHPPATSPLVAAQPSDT

Row | Kp [1] | AUC(0-t) ([2]; 1 mg/kg, intravenous (bolus)) [ng·h/mL] | half-life ([2]; 1 mg/kg, intravenous (bolus)) [h] | bioavailability [2] [%] | AUC(0-t) ([2]; 3 mg/kg, oral (gavage)) [ng·h/mL] | Cmax ([2]; 3 mg/kg, oral (gavage)) [ng/mL] | Tmax ([2]; 3 mg/kg, oral (gavage)) [h] | half-life ([2]; 3 mg/kg, oral (gavage)) [h] | EC50 [4] [nM] | Structure (SMILES) | Reversal of Scopolamine Induced amnesia - Effective dose range (Radial arm maze) | Exploration time mean ± S.E.M, Familiar object ([3]; 0.003 mg/kg) [s] | Exploration time mean ± S.E.M, Novel object ([3]; 0.003 mg/kg) [s] | Inference ([3]; 0.003 mg/kg) | IC50 (hERG) [nM] | Exploration time mean ± S.E.M, Familiar object ([3]; 3 mg/kg) [s] | Exploration time mean ± S.E.M, Novel object ([3]; 3 mg/kg) [s] | Inference ([3]; 3 mg/kg) | Exploration time mean ± S.E.M, Familiar object ([3]; 0.3 mg/kg) [s] | Exploration time mean ± S.E.M, Novel object ([3]; 0.3 mg/kg) [s] | Inference ([3]; 0.3 mg/kg)
1 | 1.03 ± 0.02 | 158 ± 7 | 1.9 | 68 ± 22 | 324 ± 105 | 131 ± 35 | 0.42 | 1.6 | – | Nc1c(Cl)cc(C(=O)NCC2C3CN(CC4CCOCC4)CC23)c2c1CCCO2.O=C(O)C(O)C(O)C(=O)O (stereo not drawn) [Example 3, 5-Amino-6-chloro-N-{[3-(tetrahydro-2H-pyran-4-ylmethyl)-3-azabicyclo[3.1.0]hex-6-yl]methyl}chroman-8-carboxamide L(+)-tartarate] | 0.03 mg/kg, p.o. | 9.9 ± 2.06 | 17.58 ± 2.24 | Active | – | – | – | – | – | – | –
2 | – | – | – | – | – | – | – | – | 1.1 to 5 | CC(C)(O)CN1CC2C(CNC(=O)c3cc(Cl)c(N)c4c3OCCC4)C2C1 (stereo not drawn) [Example 37, 5-Amino-6-chloro-N-{[3-(2-hydroxy-2-methylpropyl)-3-azabicyclo[3.1.0]hex-6-yl]methyl}chroman-8-carboxamide L(+)-tartarate] | – | – | – | – | > 10000 | – | – | – | – | – | –
3 | 0.78 ± 0.06 | 232 ± 14 | 1.5 | 25 ± 1 | 176 ± 10 | 110 ± 25 | 0.33 | 1.3 | – | CC(C)(O)CN1CCC(F)(CNC(=O)c2cc(Cl)c(N)c3c2OCCC3)CC1.O=C(O)C(O)C(O)C(=O)O [Example 44, 5-Amino-6-chloro-N-{[4-fluoro-1-(2-hydroxy-2-methylpropyl)-4-piperidinyl]methyl}chroman-8-carboxamide L(+)-tartarate] | – | – | – | – | > 10000 | 5.44 ± 1.02 | 14.64 ± 2.19 | Active | – | – | –
4 | 2.53 ± 0.63 | 147 ± 17 | 0.8 | 27 ± 20 | 250 ± 87 | 182 ± 26 | 0.33 | 1.6 | 10.1 to 20 | Cc1cc2c(N)c(Cl)cc(C(=O)NCC3(F)CCN(CC(C)(C)O)CC3)c2o1.O=C(O)C(O)C(O)C(=O)O [Example 53, 4-Amino-5-chloro-2-methyl-N-{[4-fluoro-1-(2-hydroxy-2-methylpropyl)-4-piperidinyl]methyl}benzofuran-7-carboxamide L(+)-tartarate] | – | – | – | – | > 10000 | – | – | – | 8.24 ± 1.32 | 15.98 ± 1.75 | Active
